Structures can show the parent of a compound that is named as a salt.

For this test, the target named is T1, human histamine H4 receptor (Homo sapiens, UniProt Q9H3N8).
T1 construct: expressed in transfected cells; host or cells: SK-N-MC cells or COS7 cells, transiently transfected with pH4R; membrane preparation
Put plainly: Binding Assay on Recombinant Human Histamine H4 Receptor. Conditions: competition binding with 3H-histamine, membranes of SK-N-MC or COS7 cells transfected with human H4R; average of results obtained. The procedure:
Biological Methods: Binding Assay on Recombinant Human Histamine H4 Receptor.
SK-N-MC cells or COS7 cells were transiently transfected with pH4R and grown in 150 cm^2 tissue culture dishes. Cells were washed with saline solution, scraped with a cell scraper and collected by centrifugation (1000 rpm, 5 min). Cell membranes were prepared by homogenization of the cell pellet in 20 mM Tris-HCl with a polytron tissue homogenizer for 10 sec at high speed. Homogenate was centrifuged at 1000 rpm for 5 min at 4° C. The supernatant was then collected and centrifuged at 20,000×g for 25 min at 4° C. The final pellet was resuspended in 50 mM Tris-HCl. Cell membranes were incubated with ^3H-histamine (5-70 nM) in the presence or absence of excess histamine (10,000 nM). Incubation occurred at room temperature for 45 min. Membranes were harvested by rapid filtration over Whatman GF/C filters and washed 4 times with ice-cold 50 mM Tris HCl. Filters were then dried, mixed with scintillant and counted for radioactivity. SK-N-MC or COS7 cells expressing human histamine H4 receptor were used to measure the affinity of binding of other compounds and their ability to displace ^3H-ligand binding by incubating the above-described reaction in the presence of various concentrations of inhibitor or compound to be tested. For competition binding studies using ^3H-histamine, K values were calculated, based on an experimentally determined KD value of 5 nM and a ligand concentration of 5 nM, according to Y.-C.

T1 sequence (Q9H3N8 whole entry): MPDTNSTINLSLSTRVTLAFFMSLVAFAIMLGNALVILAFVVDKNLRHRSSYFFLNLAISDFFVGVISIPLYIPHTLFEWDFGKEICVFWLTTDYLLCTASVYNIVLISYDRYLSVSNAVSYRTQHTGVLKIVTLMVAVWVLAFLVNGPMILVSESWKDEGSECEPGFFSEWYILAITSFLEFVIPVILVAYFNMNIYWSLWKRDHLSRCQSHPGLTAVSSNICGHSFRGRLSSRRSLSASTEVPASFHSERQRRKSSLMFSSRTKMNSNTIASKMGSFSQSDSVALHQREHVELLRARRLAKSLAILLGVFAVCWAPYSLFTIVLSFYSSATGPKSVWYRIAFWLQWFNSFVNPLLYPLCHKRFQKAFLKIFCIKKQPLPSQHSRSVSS

In general, Ki refers to a dissociation constant, usually derived from enzyme kinetics or from competition with a known ligand. As to `Nc1nc(N2CC[C@@H](N)C2)c2oc3c(c2n1)CCCC3` [Example 24, 4-[(3R)-3-Aminopyrrolidin-1-yl-6,7,8,9-tetra-hydro[1]benzofuro[3,2-d]pyrimidin-2-aminetrifluoroacetic acid salt], the Ki came out at 2 nM.
As for `CN1C[C@@H]2CN(c3nc(N)nc4c5c(sc34)CCC(F)(F)C5)C[C@@H]2C1` [Example 121, 8,8-Difluoro-4-[(3aR,6aS)-5-methylhexahydropyrrolo[3,4-c]pyrrol-2(1H)-yl]-6,7,8,9-tetrahydro[1]benzothieno[3,2-d]pyrimidin-2-amine (free amine)], the Ki turned out to be 150 nM.
For the compound `Nc1nc(N2C[C@H]3CNC[C@H]3C2)c2sc3c(c2n1)CCCC3` [Example 33], the Ki is 390 nM.
In the case of `CN1CCN(c2nc(N)nc3c4c(sc23)CCCC4)CC1` [Example 2, 4-(4-Methyl-piperazin-1-yl)-6,7,8,9-tetrahydro-benzo[4,5]thieno[3,2-d]pyrimidin-2-ylamine], the Ki came out at 13 nM.
On to `Nc1nc(N2CCC[C@H](N)C2)c2sc3c(c2n1)CCCC3` [Example 34, 4-[(3S)-3-Aminopiperidin-1-yl]-6,7,8,9-tetrahydro[1]ben-zothieno[3,2-d]pyrimidin-2-amine], for which the inhibition constant (Ki) was determined as 123 nM.
With `CN(C)[C@@H]1CCN(c2nc(N)nc3c4c(sc23)CCCC4)C1` [Example 39, 4-[(3R)-3-(Dimethyl-amino)pyrrolidin-1-yl]-6,7,8,9-tetrahydro[1]benzo-thieno[3,2-d]pyrimidin-2-amine trifluoroacetic acid salt], the Ki turned out to be 62 nM.
The value for `CN[C@@H]1CCN(c2nc(N)nc3c4c(oc23)CCC(F)(F)C4)C1` [Example 116, 8,8-Difluoro-4-[(3R)-3-(methylamino)pyrrolidin-1-yl]-6,7,8,9-tetrahydro[1]benzofuro[3,2-d]pyrimidin-2-amine hydrochloride] was 0.48 nM; that for `CNC1CCN(c2ncnc3c4c(oc23)CCCC4)C1` (stereo in doubt) [Example 28, (3R)-N-Methyl-1-(6,7,8,9-tetrahydro[1]benzofuro[3,2-d]pyrimidin-4-yl)pyrrolidin-3-amine] was 66 nM.
With `Nc1nc(N2CCCNCC2)c2sc3c(c2n1)CC(F)(F)CC3` [Example 114, 4-(1,4-Diazepan-1-yl)-8,8-difluoro-6,7,8,9-tetrahydro[1]benzothieno[3,2-d]pyrimidin-2-amine trifluoroacetate] the figure was 2.1 nM; with `Nc1nc(N2CC(N)C2)c2oc3c(c2n1)CCCC3` [Example 23, 4-(3-Aminoazetidin-1-yl)-6,7,8,9-tetrahydro[1]benzo-furo[3,s-d]pyrimidin-2-amine trifluoroacetic acid salt], 83 nM.
Regarding `Nc1nc(N2CC[C@H](N)C2)c2oc3c(c2n1)CC(F)(F)CC3` [Example 126, 4-[(3S)-3-Aminopyrrolidin-1-yl]-8,8-difluoro-6,7,8,9-tetrahydro[1]benzofuro[3,2-d]pyrimidin-2-amine hydrochloride], the Ki turned out to be 6.1 nM.
`CN1CCN(c2ncnc3c4c(oc23)CCCC4)CC1` [Example 8, 4-(4-Methyl-piperazin-1-yl)-6,7,8,9-tetrahydro-benzo[4,5]furo[3,2-d]pyrimidine]: the Ki was found to be 53 nM.
Take `CN[C@H]1CCN(c2nc(N)nc3c4c(sc23)CCCC4)C1` (single isomer, unassigned) [Example 31]: the Ki is 5 nM.
Turning to `Nc1nc(N2C[C@H]3CNC[C@H]3C2)c2sc3c(c2n1)CC(F)(F)CC3` [Example 129, 8,8-Difluoro-4-[(3aR,6aS)-hexahydropyrrolo[3,4-c]pyrrol-2(1H)-yl]-6,7,8,9-tetrahydro[1]benzothieno[3,2-d]pyrimidin-2-amine (free amine)], the Ki was found to be 680 nM.
On to `CNC1CCN(c2nc(N)nc3c(C)csc23)C1` (stereo in doubt) [Example 12, 7-Methyl-4-[(3R)-3-(methylamino)pyrrolidin-1-yl]thieno[3,2-d]pyrimidin-2-amine], for which the Ki came out at 182 nM.
On to `CN[C@H]1CCN(c2nc(N)nc3cc(C(C)(C)C)sc23)C1` [Example 16, trifluoroacetic acid salt], for which the Ki was determined as 71 nM.
Consider `CNC1CCN(c2nc(N)nc3c(Br)csc23)C1` (stereo in doubt) [Example 14, 7-Bromo-4-(3R)-3-(methyl-amino)pyrrolidin-1-yl-d]pyrimidin-2-amine tri-fluoroacetic acid salt], for which the Ki turned out to be 1050 nM.
With `Nc1nc(N2C[C@H]3CCCN[C@H]3C2)c2sc3c(c2n1)CCCC3` [Example 32, 4-[(4aR,7aR)-Octahydro-6H-pyrrolo[3,4-b]pyridin-6-yl]-6,7,8,9-tetrahydro[1]benzo-thieno[3,2-,d]pyrimidin-2-amine], the Ki stood at 2 nM.
Regarding `Nc1nc(N2C[C@H]3CCCN[C@H]3C2)c2oc3c(c2n1)CC(F)(F)CC3` [Example 124, 4-((R,R)-octahydropyrrolo[3,4-b]pyridin-6-yl)-8,8-difluoro-6,7,8,9-tetrahydro[1]benzofuro[3,2-d]pyrimidin-2-amine trifluoroacetate], the Ki was determined as 33 nM.
Regarding `CN[C@@H]1CCN(c2nc(N)nc3c4c(oc23)CCC(C)(C)C4)C1` [Example 137, 8,8-Dimethyl-4-[(3R)-3-(methylamino)pyrrolidin-1-yl]-6,7,8,9-tetrahydro[1]benzofuro[3,2-d]pyrimidin-2-amine hydrochloride], the Ki was 18 nM.
With `CC1(C)CCc2sc3c(N4CC[C@@H](N)C4)nc(N)nc3c2C1` [Example 136, 4-[(3R)-3-Aminopyrrolidin-1-yl]-8,8-dimethyl-6,7,8,9-tetrahydro[1]benzothieno[3,2-d]pyrimidin-2-amine hydrochloride] the figure was 7.7 nM; with `CN[C@@H]1CCN(c2nc(N)nc3c4c(sc23)CCC(C)(C)C4)C1` [Example 134, 8,8-Dimethyl-4-[(3R)-3-(methylamino)pyrrolidin-1-yl]-6,7,8,9-tetrahydro[1]benzothieno[3,2-d]pyrimidin-2-amine hydrochloride], 7.6 nM; with `CNC1CCN(c2nc(N)nc3c4c(sc23)CCCCC4)C1` (stereo in doubt) [Example 47, trifluoroacetic acid salt], 5 nM.
In the case of `CN[C@H]1CCN(c2nc(N)nc3c4c(sc23)CCC(C)C4)C1` (stereo partly drawn) [Example 44, 8-Methyl-4-[(3R)-3-(methyl-amino)pyrrolidin-1-yl]-6,7,8,9-tetrahydro[1]benzo-thieno[3,2-d]pyrimidin-2-amine trifluoroacetic acid salt], the Ki came to 11 nM.
For the compound `CN[C@H]1CCN(c2nc(N)nc3c4c(sc23)CCC(F)(F)C4)C1` [Example 112, 8,8-Difluoro-4-[(3S)-3-(methylamino)pyrrolidin-1-yl]-6,7,8,9-tetrahydro[1]benzothieno[3,2-d]pyrimidin-2-amine trifluoroacetate], the Ki came to 6 nM.
The value for `Nc1nc(N2CC3CCC(C2)N3)c2oc3c(c2n1)CCCC3` [Example 26, 4-(3,8-Diazabi-cyclo[3.2.1]oct-3-yl)-6,7,8,9-tetrahydro[1]benzofuro[3,2-d]pyrimidin-2-amine] was 32 nM.
Regarding `Nc1nc(N2CCN3CCCCC3C2)c2sc3c(c2n1)CCCC3` (stereo not drawn) [Example 53, 4-(Octahydro-2H-pyrido[1,2-a]pyrazin-2-yl)-6,7,8,9-tetrahydro[1]benzothieno-3,2-d]pyrimidin-2-amine trifluoroacetic acid salt], the Ki came out at 387 nM.
Regarding `Nc1nc(N2CC[C@H](N)C2)c2sc3c(c2n1)CC(F)(F)CC3` [Example 119, 4-[(3S)-3-Aminopyrrolidin-1-yl]-8,8-difluoro-6,7,8,9-tetrahydro[1]benzothieno[3,2-d]pyrimidin-2-amine hydrochloride], the Ki was 21 nM.
`Nc1nc(N2CCNCC2)c2sc3c(c2n1)CC(F)(F)CC3` [Example 58, 8,8-Difluoro-4-piperazin-1-yl-6,7,8,9-tetrahydro[1]ben-zothieno[3,2-d]pyrimidin-2-amine trifluoroacetic acid salt]: the Ki is 14 nM.
On to `CC1(C)CCc2sc3c(N4CCCNCC4)nc(N)nc3c2C1` [Example 132, 4-(1,4-Diazepan-1-yl)-8,8-dimethyl-6,7,8,9-tetrahydro[1]benzothieno[3,2-d]pyrimidin-2-amine trifluoroacetate], for which the Ki stood at 35 nM.
Turning to `CN[C@@H]1CN(c2nc(N)nc3c4c(sc23)CCCC4)C[C@@H]1O` [Example 38, (3S,4S)-1-(2-Amino-6,7,8,9-tetrahydro[1]benzothieno[3,2-d]pyrimidin-4-yl)-4-(methyl-amino)pyrrolidin-3-of tri-fluoroacetic acid salt], the Ki was 300 nM.
In the case of `Nc1nc(N2C[C@H]3C[C@@H]2CN3)c2sc3c(c2n1)CCCC3` [Example 36, 4-[(1R,4R)-2,5-Diazabicy-clo[2.2.1]hept-2-yl]-6,7,8,9-tetrahydro[1]benzothi-eno[3,2-d]pyrimidin-2-amine], the Ki is over 10000 nM.
As for `CN1CCN(c2nc(N)nc3c4c(sc23)CCC(F)(F)C4)CC1` [Example 57, 8,8-Difluoro-4-(4-methyl-piperazin-1-yl)-6,7,8,9-tetrahydro[1]benzothieno[3,2-d]pyrimidin-2-amine trifluoroacetic acid salt], the Ki worked out at 23 nM.

The values above are taken from patent publication US8440654B2, “Thieno- and furo-pyrimidine modulators of the histamine H4 receptor” (Janssen Pharmaceutica NV, priority 2007, dated 2013).
